Values after ≈ are worked out from the molar mass of the structure shown. Where two headings read alike, the source gives them in different places.
What was measured:
rats = conditions: p.o., cited from earlier work
rabbits = conditions: p.o.; cited from earlier work
mice = conditions: p.o., cited from earlier work
[1] = test system: Neisseria gonorrhoeae CDC panel consisting of 48 isolates; test: Agar dilution MIC, CDC panel of 48 isolates (Example 2); type: cell-based; conditions: for MIC: Neisseria gonorrhoeae
Protocol: Neisseria gonorrhoeae (Neisseria gonocossus) were tested for antimicrobial susceptibility using agar dilution as described by the Clinical and Laboratory Standards Institute (CLSI), see reference (4).
The concentrations tested for each compound encompass the reported interpretive breakpoints and consist of 8 or more doubling dilutions, ensuring that there is one dilution below the lowest value of QC.
GC agar base +1% defined growth supplement.
Initial screening strains: Neisseria gonorrhoeae CDC panel consisting of 48 isolates. The strains were provided by Clinical and Environmental Microbiology Branch, Division of Healthcare Quality Promotion, CDC (Atlanta, US).
Dilution scheme for reference method: Prepare intermediate 100× antimicrobial agent solutions by making successive serial twofold dilutions. Then, add one part of the 100× antimicrobial solution to […] of molten agar. Plates containing no antimicrobial agent solutions are made for use as growth controls. It is important that no longer than one hour elapses between the time that the stock solution is thawed, the dilutions are prepared and added to the base medium and the plates are poured, see reference (5).
• Add appropriate dilutions of antimicrobial solution to molten test agars that have been allowed to equilibrate in a water bath to 50° C. • Mix the agar and antimicrobial solution thoroughly and pour (20 mL) into Petri dishes on a level surface. Pour quickly after mixing to prevent cooling and partial solidification in the mixing container. Avoid generating bubbles when mixing. • Allow the agar to solidify at room temperature and store them in sealed plastic bags at 2 to 8° C. for up to five days. Preferably use with 24 hours. • Allow plates stored at 2 to 8° C. to equilibrate to room temperature before use. Make certain that the agar surface is dry before inoculating the plates. If necessary, place the plates in an incubator or laminar flow hood for approximately 30 minutes with their lids ajar to hasten drying of the agar surface.
Inoculum preparation: Prepare a standardized inoculum for the agar dilution method by suspending isolated colonies of Neisseria gonorrhoeae selected from an 18-24 hour-old chocolate agar plate directly in Mueller Hinton Broth (MHB) to achieve the density equivalent to a 0.5 McFarland standard and adjusted to obtain a cell density of ˜1-2×10^8 CFU/mL. For N. gonorrhoeae, the McFarland solutions are made at a reading of ˜0.80 in densitometer (Grant Instruments DEN-1B Densitometer) because these values have been evaluated and correspond to the desired CFU/mL count.
Dilution of inoculum suspension: Cultures adjusted to the 0.5 McFarland standard contain approximately 1 to 2×10^8 CFU/mL with most species, and the final inoculum required is 10^4 CFU per spot. When using replicators with 3-mm pins that deliver ˜2.5 μL, dilute the 0.5 McFarland suspension 1:10 in sterile MHB to obtain a concentration of 10^7 CFU/mL. The final inoculum on the agar will be approximately 10^4 CFU per spot. Use the adjusted suspensions for final inoculation within 60 minutes of preparation, see reference (5).
The following procedure was followed: • Arrange the tubes containing the adjusted and diluted bacterial suspensions (10^7 CFU/mL) in order in a rack. Place an aliquot of each well-mixed suspension into the corresponding well in the replicator inoculum block (if being used). • Mark the agar plates for orientation of the inoculum spots. • Apply an aliquot of each inoculum (2.5 μL) to the agar surface, either with an inocula-replicating device or pipette, to obtain a final concentration of ˜10^4 CFU/spot. • Inoculate a growth-control plate (no antimicrobial agent) first and then, starting with the lowest concentration, inoculate the plates containing the different antimicrobial concentrations. […]

O=C(Nc1ccc(Oc2ccc(Cl)cc2)c(Cl)c1)c1cc(I)cc(I)c1O [Rafoxanide, rafoxanide]
LD50, median (rats; median of the studies): > 1490 mg/kg | LD50 (rats): 980->2000 mg/kg | LD50 (rabbits): 3200 mg/kg | LD50, median (mice; median of the studies): 266 mg/kg | LD50 (mice): 232 to 300 mg/kg | MIC ([1]; read-out: MIC value, for 46 of the 48 isolates of N. gonorrhoeae): ≤ 50.2 µg/mL | MIC ([1]; read-out: Minimal inhibitory concentration, Neisseria gonorrhoeae strain CDC # 165): ≤ 0.25 µg/mL | MIC ([1]; read-out: Minimal inhibitory concentration, Neisseria gonorrhoeae strain CDC # 166): ≤ 0.25 µg/mL | MIC ([1]; read-out: Minimal inhibitory concentration, Neisseria gonorrhoeae strain CDC # 167): ≤ 0.25 µg/mL | MIC ([1]; read-out: Minimal inhibitory concentration, Neisseria gonorrhoeae strain CDC # 169): ≤ 0.25 µg/mL | MIC ([1]; read-out: Minimal inhibitory concentration, Neisseria gonorrhoeae strain CDC # 170): ≤ 0.25 µg/mL | MIC ([1]; read-out: Minimal inhibitory concentration, Neisseria gonorrhoeae strain CDC # 171): ≤ 0.25 µg/mL | MIC ([1]; read-out: Minimal inhibitory concentration, Neisseria gonorrhoeae strain CDC # 172): ≤ 0.25 µg/mL | MIC ([1]; read-out: Minimal inhibitory concentration, Neisseria gonorrhoeae strain CDC # 173): ≤ 0.25 µg/mL | MIC ([1]; read-out: Minimal inhibitory concentration, Neisseria gonorrhoeae strain CDC # 174): ≤ 0.25 µg/mL | MIC ([1]; read-out: Minimal inhibitory concentration, Neisseria gonorrhoeae strain CDC # 175): ≤ 0.25 µg/mL | MIC ([1]; read-out: Minimal inhibitory concentration, Neisseria gonorrhoeae strain CDC # 176): ≤ 0.25 µg/mL | MIC ([1]; read-out: Minimal inhibitory concentration, Neisseria gonorrhoeae strain CDC # 177): ≤ 0.25 µg/mL | MIC ([1]; read-out: Minimal inhibitory concentration, Neisseria gonorrhoeae strain CDC # 178): ≤ 0.25 µg/mL | MIC ([1]; read-out: Minimal inhibitory concentration, Neisseria gonorrhoeae strain CDC # 179): ≤ 0.25 µg/mL | MIC ([1]; read-out: Minimal inhibitory concentration, Neisseria gonorrhoeae strain CDC # 180): ≤ 0.25 µg/mL | MIC ([1]; read-out: Minimal inhibitory concentration, Neisseria gonorrhoeae strain CDC # 181): ≤ 0.25 µg/mL | MIC ([1]; read-out: Minimal inhibitory concentration, Neisseria gonorrhoeae strain CDC # 182): 2 µg/mL (≈ 3.19 µM) | MIC ([1]; read-out: Minimal inhibitory concentration, Neisseria gonorrhoeae strain CDC # 183): ≤ 0.25 µg/mL | MIC ([1]; read-out: Minimal inhibitory concentration, Neisseria gonorrhoeae strain CDC # 184): ≤ 0.25 µg/mL | MIC ([1]; read-out: Minimal inhibitory concentration, Neisseria gonorrhoeae strain CDC # 185): ≤ 0.25 µg/mL | MIC ([1]; read-out: Minimal inhibitory concentration, Neisseria gonorrhoeae strain CDC # 186): ≤ 0.25 µg/mL | MIC ([1]; read-out: Minimal inhibitory concentration, Neisseria gonorrhoeae strain CDC # 187): ≤ 0.25 µg/mL | MIC ([1]; read-out: Minimal inhibitory concentration, Neisseria gonorrhoeae strain CDC # 188): ≤ 0.25 µg/mL | MIC ([1]; read-out: Minimal inhibitory concentration, Neisseria gonorrhoeae strain CDC # 189): ≤ 0.25 µg/mL | MIC ([1]; read-out: Minimal inhibitory concentration, Neisseria gonorrhoeae strain CDC # 190): ≤ 0.25 µg/mL | MIC ([1]; read-out: Minimal inhibitory concentration, Neisseria gonorrhoeae strain CDC # 191): ≤ 0.25 µg/mL | MIC ([1]; read-out: Minimal inhibitory concentration, Neisseria gonorrhoeae strain CDC # 192): ≤ 0.25 µg/mL | MIC ([1]; read-out: Minimal inhibitory concentration, Neisseria gonorrhoeae strain CDC # 193): ≤ 0.25 µg/mL | MIC ([1]; read-out: Minimal inhibitory concentration, Neisseria gonorrhoeae strain CDC # 194): ≤ 0.25 µg/mL | MIC ([1]; read-out: Minimal inhibitory concentration, Neisseria gonorrhoeae strain CDC # 195): ≤ 0.25 µg/mL | MIC ([1]; read-out: Minimal inhibitory concentration, Neisseria gonorrhoeae strain CDC # 196): ≤ 0.25 µg/mL | MIC ([1]; read-out: Minimal inhibitory concentration, Neisseria gonorrhoeae strain CDC # 198): ≤ 0.25 µg/mL | MIC ([1]; read-out: Minimal inhibitory concentration, Neisseria gonorrhoeae strain CDC # 199): ≤ 0.25 µg/mL | MIC ([1]; read-out: Minimal inhibitory concentration, Neisseria gonorrhoeae strain CDC # 200): ≤ 0.25 µg/mL | MIC ([1]; read-out: Minimal inhibitory concentration, Neisseria gonorrhoeae strain CDC # 201): ≤ 0.25 µg/mL | MIC ([1]; read-out: Minimal inhibitory concentration, Neisseria gonorrhoeae strain CDC # 202): ≤ 0.25 µg/mL | MIC ([1]; read-out: Minimal inhibitory concentration, Neisseria gonorrhoeae strain CDC # 203): ≤ 0.25 µg/mL | MIC ([1]; read-out: Minimal inhibitory concentration, Neisseria gonorrhoeae strain CDC # 204): 0.5 µg/mL (≈ 0.799 µM) | MIC ([1]; read-out: Minimal inhibitory concentration, Neisseria gonorrhoeae strain CDC # 205): ≤ 0.25 µg/mL | MIC ([1]; read-out: Minimal inhibitory concentration, Neisseria gonorrhoeae strain CDC # 206): ≤ 0.25 µg/mL | MIC ([1]; read-out: Minimal inhibitory concentration, Neisseria gonorrhoeae strain CDC # 207): ≤ 0.25 µg/mL | MIC ([1]; read-out: Minimal inhibitory concentration, Neisseria gonorrhoeae strain CDC # 208): ≤ 0.25 µg/mL | MIC ([1]; read-out: Minimal inhibitory concentration, Neisseria gonorrhoeae strain CDC # 209): ≤ 0.25 µg/mL | MIC ([1]; read-out: Minimal inhibitory concentration, Neisseria gonorrhoeae strain CDC # 210): ≤ 0.25 µg/mL | MIC ([1]; read-out: Minimal inhibitory concentration, Neisseria gonorrhoeae strain CDC # 211): ≤ 0.25 µg/mL | MIC ([1]; read-out: Minimal inhibitory concentration, Neisseria gonorrhoeae strain CDC # 212): ≤ 0.25 µg/mL | MIC ([1]; read-out: Minimal inhibitory concentration, Neisseria gonorrhoeae strain CDC # 213): ≤ 0.25 µg/mL | MIC ([1]; read-out: Minimal inhibitory concentration, Neisseria gonorrhoeae strain CDC # 214): ≤ 0.25 µg/mL | in vitro activity (in words) ([1]; against N. gonococcus (N. gonorrhoeae), Example 2 conclusion): Good in vitro activity
